Consider three compounds from patent US8513243B2, “ABT-263 crystalline forms” (AbbVie Inc., priority 2009, dated 2013).

For series [1], the system named is small-cell lung cancer (SCLC) and lymphoid malignancies. The following applies: against SCLC and lymphoid malignancies; cited from earlier work.
The nature of series [2]: dissolution in a lipid carrier when preparing a liquid formulation. The settings on record: solution in a lipid carrier; compared with amorphous form. The series is classed as physicochemical.
Series [3] can be described thus: sulfoxide formation in lipid solution. The series is classed as physicochemical. The settings on record: formulated in lipid solution, in the absence of antioxidant; compared with salt form, e.g. ABT-263 bis-HCl.

Structures are written as SMILES.

On to `CN(C)CC[C@H](CSc1ccccc1)Nc1ccc(S(=O)(=O)NC(=O)c2ccc(N3CCN(Cc4ccccc4-c4ccc(Cl)cc4)CC3)cc2)cc1[N+](=O)[O-]` [ABT-737, N-(4-(4-((4′-chloro-(1,1′-biphenyl)-2-yl)methyl)piperazin-1-yl)benzoyl)-4-(((1R)-3-(dimethylamino)-1-((phenylsulfanyl)methyl)propyl)amino)-3-nitrobenzene-sulfonamide], for which the single-agent activity result in series [1] is “single-agent activity”.
Consider `CC1(C)CCC(c2ccc(Cl)cc2)=C(CN2CCN(c3ccc(C(=O)NS(=O)(=O)c4ccc(N[C@H](CCN5CCOCC5)CSc5ccccc5)c(S(=O)(=O)C(F)(F)F)c4)cc3)CC2)C1` [crystalline ABT-263, N-(4-(4-((2-(4-chlorophenyl)-5,5-dimethyl-1-cyclohex-1-en-1-yl)methyl)piperazin-1-yl)benzoyl)-4-(((1R)-3-(morpholin-4-yl)-1-((phenylsulfanyl)methyl)propyl)amino)-3-((trifluoromethyl)sulfonyl)benzenesulfonamide], for which the dissolution behaviour result in series [2] was “dissolves faster and has less tendency to form a gel during dissolution”.
On to `CC1(C)CCC(c2ccc(Cl)cc2)=C(CN2CCN(c3ccc(C(=O)NS(=O)(=O)c4ccc(N[C@H](CCN5CCOCC5)CSc5ccccc5)c(S(=O)(=O)C(F)(F)F)c4)cc3)CC2)C1` [ABT-263 free base, N-(4-(4-((2-(4-chlorophenyl)-5,5-dimethyl-1-cyclohex-1-en-1-yl)methyl)piperazin-1-yl)benzoyl)-4-(((1R)-3-(morpholin-4-yl)-1-((phenylsulfanyl)methyl)propyl)amino)-3-((trifluoromethyl)sulfonyl)benzenesulfonamide], for which the “susceptibility to sulfoxide formation” value in series [3] was “less susceptible to sulfoxide formation than ABT-263 in salt form”.
